Experimental data from ChEMBL document CHEMBL3421545, “Discovery of novel non-covalent inhibitors selective to the β5-subunit of the human 20S proteasome” (Eur J Med Chem, 2015).

Assays:
[1] = molecular target: Proteasome subunit beta type-6, β1, caspase-like (Homo sapiens) (UniProt P28072); assay: Inhibition of caspase-like activity of human beta-1 subunit of 20S proteasome using (Z)-LLE-bNA as substrate at 10 ug/ml by fluorometer analysis
[2] = molecular target: Proteasome subunit beta type-7, β2, trypsin-like (Homo sapiens) (UniProt Q99436); assay: Inhibition of trypsin-like activity of human beta-2 subunit of 20S proteasome using Bz-VGR-AMC as substrate at 10 ug/ml by fluorometer analysis
Proteasome subunit beta type-7, β2, trypsin-like (Homo sapiens), sequence (Q99436 whole entry, looked up): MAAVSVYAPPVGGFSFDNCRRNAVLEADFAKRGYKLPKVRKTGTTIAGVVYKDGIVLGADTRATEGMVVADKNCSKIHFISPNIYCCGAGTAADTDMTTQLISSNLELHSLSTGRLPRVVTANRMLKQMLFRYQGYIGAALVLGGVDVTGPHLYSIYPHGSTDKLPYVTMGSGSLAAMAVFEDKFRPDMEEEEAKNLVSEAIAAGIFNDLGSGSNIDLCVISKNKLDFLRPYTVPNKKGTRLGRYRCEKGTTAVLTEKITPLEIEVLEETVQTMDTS

[3] = molecular target: T1, Proteasome Macropain subunit MB1 (Homo sapiens, UniProt P28074); assay: Inhibition of chymotrypsin-like activity of human beta-5 subunit of 20S proteasome using Suc-LLVY-AMC as substrate by fluorometer analysis
T1 sequence (P28074 whole entry): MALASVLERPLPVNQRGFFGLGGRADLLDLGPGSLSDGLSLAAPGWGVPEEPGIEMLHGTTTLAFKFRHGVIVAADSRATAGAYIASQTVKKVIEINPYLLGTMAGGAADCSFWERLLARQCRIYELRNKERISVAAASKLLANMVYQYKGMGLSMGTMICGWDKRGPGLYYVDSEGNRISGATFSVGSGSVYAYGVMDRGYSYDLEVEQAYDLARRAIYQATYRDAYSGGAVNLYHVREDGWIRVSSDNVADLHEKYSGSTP

[4] = Inhibition of chymotrypsin-like activity of 20S proteasome isolated from human THP1 cells using Suc-Leu-Leu-Val-Tyr-MCA as substrate by fluorometer analysis; format: cell-free; details: thp-1

Proteasome subunit beta type-6, β1, caspase-like (Homo sapiens), sequence (P28072 whole entry, looked up): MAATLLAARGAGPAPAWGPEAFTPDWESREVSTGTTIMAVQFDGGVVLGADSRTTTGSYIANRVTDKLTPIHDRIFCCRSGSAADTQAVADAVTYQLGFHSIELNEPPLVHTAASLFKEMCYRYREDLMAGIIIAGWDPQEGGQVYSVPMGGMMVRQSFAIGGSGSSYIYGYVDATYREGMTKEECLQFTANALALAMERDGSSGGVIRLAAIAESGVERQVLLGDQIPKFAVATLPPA

IC50 ([3]; read-out: IC50) | IC50 [3] | SMILES | also measured
0.92 µM |  | CC(C)[C@H](NC(=O)[C@H](CC(N)=O)NC(=O)Cc1cccc(Oc2ccccc2)c1)C(=O)N[C@H](C(=O)OCc1ccccc1)[C@H](C)O | inhibition [1]: < 50%; inhibition [2]: < 50%
 | Not Active | COc1ccc(CNC(=O)[C@@H](NC(=O)[C@H](CC(N)=O)NC(=O)Cc2cccc(Oc3ccccc3)c2)C(C)C)c(OC)c1 | 
 | Not Active | CC(C)[C@H](NC(=O)[C@H](CC(N)=O)NC(=O)Cc1cccc(Oc2ccccc2)c1)C(=O)N[C@@H](C)c1ccccc1 | 
1.63 µM |  | COc1ccc(CNC(=O)[C@@H](NC(=O)[C@H](CCC(N)=O)NC(=O)Cc2cccc(Oc3ccccc3)c2)C(C)C)c(O)c1 | 
17.2 µM |  | CC(C)[C@H](NC(=O)[C@H](CC(N)=O)NC(=O)Cc1cccc(Oc2ccccc2)c1)C(=O)NCCO | 
17.3 µM |  | CC(C)[C@H](NC(=O)[C@H](CC(N)=O)NC(=O)Cc1cccc(Oc2ccccc2)c1)C(=O)OCc1ccccc1 | 
0.66 µM |  | COc1ccc(CNC(=O)[C@@H](NC(=O)[C@H](CC(N)=O)NC(=O)Cc2cccc(Oc3ccccc3)c2)C(C)C)c(O)c1 | inhibition [1]: < 50%; inhibition [2]: < 50%
 | Not Active | COc1ccc(CNC(=O)[C@@H](NC(=O)[C@H](CCCCN)NC(=O)Cc2cccc(Oc3ccccc3)c2)C(C)C)c(O)c1 | 
11.7 µM |  | COc1ccc(CNC(=O)[C@@H](NC(=O)[C@H](CCCCNC(=O)OCc2ccccc2)NC(=O)Cc2cccc(Oc3ccccc3)c2)C(C)C)c(O)c1 | 
13.9 µM |  | CC(C)[C@H](NC(=O)[C@H](CC(N)=O)NC(=O)Cc1cccc(Oc2ccccc2)c1)C(=O)N[C@H](C(=O)O)[C@H](C)O | 
 |  | C/C=C\NC(=O)[C@H]1NC(=O)[C@@H](CC(N)=O)NC(=O)[C@@H](NC(=O)C(=O)[C@@H](C)CC)Cc2ccc(O)c(c2)-c2cccc3c2NC(=O)[C@@]3(O)[C@@H]1O | IC50 [4]: 0.0054 µM
 | Not Active | CC(C)[C@H](NC(=O)[C@H](CC(N)=O)NC(=O)Cc1cccc(Oc2ccccc2)c1)C(=O)N[C@H](C)c1ccccc1 | 
13 µM |  | CCCNC(=O)[C@@H](NC(=O)[C@H](CC(N)=O)NC(=O)Cc1cccc(Oc2ccccc2)c1)C(C)C | 
 | Not Active | CC(C)[C@H](NC(=O)[C@H](CC(N)=O)NC(=O)Cc1cccc(Oc2ccccc2)c1)C(=O)NCCc1ccccc1 | 
 | Not Active | CC(C)[C@H](NC(=O)[C@H](CC(N)=O)NC(=O)Cc1cccc(Oc2ccccc2)c1)C(=O)O | 
0.29 µM |  | COC(=O)[C@@H](NC(=O)[C@@H](NC(=O)[C@H](CC(N)=O)NC(=O)Cc1cccc(Oc2ccccc2)c1)C(C)C)[C@H](C)O | inhibition [1]: < 50%; inhibition [2]: < 50%
